Patent US20250145600A1, “2-((4-((S)-2-(4-CHLORO-2-FLUOROPHENYL)-2-METHYLBENZO[D][1,3]DIOXOL-4-YL)PIPERIDIN-1-YL)METHYL)-1-(((S)-OXETAN-2-YL)METHYL)-1H-IMIDAZOLE DERIVATIVES AS ACTIVATORS OF THE GLP1 RECEPTOR FOR THE TREATMENT OF OBESITY” (Novartis AG, priority 2022, published 2025)

Molecular target: human GLP1R (hGLP1R) (Homo sapiens, UniProt P43220)
Assay: Human GLP1R β-arrestin recruitment assay (PathHunter)
Type: cell-based
Design: insert synthesized by GeneArt 93-0164 (CHO-K1-EA parental cells); 93-0491 (pCMV PK vector bundle)
Details: CHO-hGLP1R-β-arrestin cells; for EC50: 2 h at 37° C., top concentration 30 μM, read-out: Beta-Arrestin assay EC50 Mean; for Emax: relative to GLP1(7-36), read-out: Beta-Arrestin assay Emax (%)
Description: Compounds of formula (I) according to the invention were tested in the following cellular assays that measure the intracellular cAMP concentration, beta-arrestin recruitment and receptor internalization. The cAMP is generated by the activation of GLP1R. The extent to which the GLP1R is internalized into the cell and away from the plasma membrane following activation is also shown in Table 2. EC50 for each assay is defined as the concentration of the compound that leads to half of the maximum response (after baseline correction). Emax is defined as the maximum response observed for the test compound, normalized to the maximum response observed for the endogenous ligand (GLP1(7-36)) to GLP1R.
Human GLP1R β-Arrestin Recruitment Assay
The extent to which agonists recruited β-arrestin was measured using the PathHunter® β-arrestin assay (DiscoverX). This assay measures binding of β-arrestin to the receptor using an enzyme complementation approach. […] When β-arrestin is recruited to the receptor the enzyme becomes active and generates luminescence in the presence of a chemiluminescent substrate (PathHunter® Detection Kit, DiscoverX cat #93-0001). Luminescence can be measured on a relevant detector. CHO-hGLP1R-β-arrestin cells stably overexpressing hGLP1R with Prolink tag and β-arrestin with EA tag were seeded at 20 μL per well in white 384-well poly-D-Lysine coated plates (Greiner Bio One, cat #781945) in Plating Reagent 2 (DiscoverX, cat #93-0563R^2A), and incubated overnight at 37° C., 5% CO2 with humidity. The following day, agonists were prepared at 5 times the final required concentration. To generate triplicate dose response curves, compounds were serially diluted 3-fold in assay buffer (HBSS, 10 mM Hepes and 0.1% BSA), then added to the cell assay plate to a final volume of 25 μL and final top concentrations starting at 30 μM. In the same plate and assay buffer as the tested compounds, were EC100 control wells containing GLP1 (7-36) peptide (Bachem, cat #H-6795) at a final concentration of 1 μM and also EC0 control wells containing no compound. The plate was incubated at 37° C., 5% CO2 with humidity for 2 h after adding the compounds to the cells. Then the detection reagent was prepared (19 parts cell assay buffer, 5 parts substrate reagent 1 and 1 part substrate reagent 2 as per manufacturers recommendations, DiscoverX cat #93-0001), and 12 μL were added per well to the cell assay plate. The plate was incubated for an additional hour in the dark at RT. Luminescence was then measured with an Envision 2104 Multilabel reader with “TRF Light Unit, 337 nm” (Perkin Elmer) using the Ultra-Sensitive protocol setting “384-well US luminescence detector” with the 384-well luminescence aperture, 0.1 sec per well. β-arrestin recruitment was calculated and expressed as percent of the GLP1 (7-36) EC100 control wells: [(sample signal−mean EC0 signal)/(mean EC100 of GLP1 (7-36) signal−mean EC0 signal)]*100 using Microsoft Excel. Curve fitting for EC50 determinations was performed using GraphPad Prism. The 4-parameter logistic model, Hill slope was used: Y=Bottom+(Top−Bottom)/(1+10^((Log EC50−X)*Hill Slope)), where Y is the functional response; X is the compound concentration; bottom is A0 or the minimum value (at 0 dose); top is Ainf or the maximum value (at infinite dose); EC50 is the point of inflection (i.e. the point on the sigmoid shaped curve halfway between A0 and Ainf). The EC50 value was calculated in μM. Emax is the maximal activity detected within the concentration range, derived from the fitted curve relative to GLP1(7-36).
PathHunter CHO-K1-EA parental cells (DiscoverX, cat #93-0164) were plated at a density of 2×10^6 cells per T75 cm^2 flask in 22 mL of complete medium (AssayComplete Cell Culture kit 107, DiscoverX, cat #92-3107G). The following day, the medium was replaced with 22 mL of fresh medium with no antibiotics and cells were transfected as follows. […]

human GLP1R (hGLP1R), sequence (P43220 24-463): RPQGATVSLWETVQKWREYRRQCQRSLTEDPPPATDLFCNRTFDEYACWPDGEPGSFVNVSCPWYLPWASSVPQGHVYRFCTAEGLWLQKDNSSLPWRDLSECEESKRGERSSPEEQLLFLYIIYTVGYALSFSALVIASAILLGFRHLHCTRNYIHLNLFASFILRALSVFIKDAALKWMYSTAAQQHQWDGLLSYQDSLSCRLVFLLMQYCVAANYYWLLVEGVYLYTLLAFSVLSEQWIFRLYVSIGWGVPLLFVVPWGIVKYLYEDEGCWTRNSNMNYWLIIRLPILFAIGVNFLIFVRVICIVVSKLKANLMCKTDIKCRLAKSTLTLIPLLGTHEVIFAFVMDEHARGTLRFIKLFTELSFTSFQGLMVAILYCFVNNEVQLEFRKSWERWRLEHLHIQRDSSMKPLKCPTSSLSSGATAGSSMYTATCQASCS

Structure (SMILES): Cc1nc(CN2CCC(c3cccc4c3O[C@@](C)(c3ccc(Cl)cc3F)O4)CC2)n(C[C@@H]2CCO2)c1-c1nc(C(=O)O)c(C)o1 [Compound C-1, 2-(2-((4-((S)-2-(4-chloro-2-fluorophenyl)-2-methylbenzo[d][1,3]dioxol-4-yl)piperidin-1-yl)methyl)-4-methyl-1-(((S)-oxetan-2-yl)methyl)-1H-imidazol-5-yl)-5-methyloxazole-4-carboxylic acid]
- EC50: > 30 µM
- Emax: 2%

Structure (SMILES): C[C@]1(c2ccc(Cl)cc2F)Oc2cccc(C3CCN(Cc4nc(C(F)(F)F)c(-c5nc(C(=O)O)co5)n4C[C@@H]4CCO4)CC3)c2O1 [Compound C-4, 2-(2-((4-((S)-2-(4-chloro-2-fluorophenyl)-2-methylbenzo[d][1,3]dioxol-4-yl)piperidin-1-yl)methyl)-1-(((S)-oxetan-2-yl)methyl)-4-(trifluoromethyl)-1H-imidazol-5-yl)oxazole-4-carboxylic acid]
- EC50: > 30 µM
- Emax: 0%

Structure (SMILES): CCc1nc(CN2CCC(c3cccc4c3O[C@@](C)(c3ccc(Cl)cc3F)O4)CC2)n(C[C@@H]2CCO2)c1-c1nc(C(=O)O)co1 [Compound C-5, 2-(2-((4-((S)-2-(4-chloro-2-fluorophenyl)-2-methylbenzo[d][1,3]dioxol-4-yl)piperidin-1-yl)methyl)-4-ethyl-1-(((S)-oxetan-2-yl)methyl)-1H-imidazol-5-yl)oxazole-4-carboxylic acid]
- EC50: > 30 µM
- Emax: 0%

Structure (SMILES): CCc1nc(CN2CCC(c3cccc4c3O[C@@](C)(c3ccc(Cl)cc3F)O4)CC2)n(C[C@H]2CCO2)c1-c1nc(C(=O)O)co1 [Compound C-7, 2-(2-((4-((S)-2-(4-chloro-2-fluorophenyl)-2-methylbenzo[d][1,3]dioxol-4-yl)piperidin-1-yl)methyl)-4-ethyl-1-(((R)-oxetan-2-yl)methyl)-1H-imidazol-5-yl)oxazole-4-carboxylic acid]
- EC50: > 30 µM
- Emax: 5%

Structure (SMILES): Cc1nc(CN2CCC(c3cccc4c3O[C@@](C)(c3ccc(Cl)cc3F)O4)CC2)n(C[C@@H]2CCO2)c1-c1nc(C(=O)O)co1 [Compound C-9, 2-(2-((4-((S)-2-(4-chloro-2-fluorophenyl)-2-methylbenzo[d][1,3]dioxol-4-yl)piperidin-1-yl)methyl)-4-methyl-1-(((S)-oxetan-2-yl)methyl)-1H-imidazol-5-yl)oxazole-4-carboxylic acid]
- EC50: > 30 µM
- Emax: 0%

Structure (SMILES): CCc1oc(-c2c(C)nc(CN3CCC(c4cccc5c4O[C@@](C)(c4ccc(Cl)cc4F)O5)CC3)n2C[C@@H]2CCO2)nc1C(=O)O [Compound C-10, 2-(2-((4-((S)-2-(4-chloro-2-fluorophenyl)-2-methylbenzo[d][1,3]dioxol-4-yl)piperidin-1-yl)methyl)-4-methyl-1-(((S)-oxetan-2-yl)methyl)-1H-imidazol-5-yl)-5-ethyloxazole-4-carboxylic acid]
- EC50: > 30 µM
- Emax: 0%

Structure (SMILES): Cc1oc(-c2nc(CN3CCC(c4cccc5c4O[C@@](C)(c4ccc(Cl)cc4F)O5)CC3)n(C[C@@H]3CCO3)c2C)nc1C(=O)O [Compound C-12, 2-(2-((4-((S)-2-(4-chloro-2-fluorophenyl)-2-methylbenzo[d][1,3]dioxol-4-yl)piperidin-1-yl)methyl)-5-methyl-1-(((S)-oxetan-2-yl)methyl)-1H-imidazol-4-yl)-5-methyloxazole-4-carboxylic acid]
- EC50: > 30 µM
- Emax: 10%

Structure (SMILES): Cc1c(-c2nc(C(=O)O)co2)nc(CN2CCC(c3cccc4c3O[C@@](C)(c3ccc(Cl)cc3F)O4)CC2)n1C[C@@H]1CCO1 [Compound C-13, 2-(2-((4-((S)-2-(4-chloro-2-fluorophenyl)-2-methylbenzo[d][1,3]dioxol-4-yl)piperidin-1-yl)methyl)-5-methyl-1-(((S)-oxetan-2-yl)methyl)-1H-imidazol-4-yl)oxazole-4-carboxylic acid]
- EC50: > 30 µM
- Emax: 12%
